Assay results published in patent US20210308101A1, “METHODS OF TREATING FIBROMYALGIA” (Aptinyx Inc., priority 2019, published 2021).

Key:
[1] = tested on: subjects with fibromyalgia; assay: Hospital Anxiety and Depression Scale (HADS); format: in vivo, human; conditions: Weeks 4 and 6
From the text: As used herein, “HADS” is Hospital Anxiety and Depression Scale. The HADS is a self-reported screening tool for anxiety and depression in non-psychiatric clinical populations. The scale consists of 14 items (7 each for anxiety and depression), each rated on a 4-point scale ranging from 0 to 3 (i.e. 0=not at all; 3=most of the time). The categorical responses are slightly different for some of the questions, but the numeric scores remained the same from 0 to 3. Responses were based on the relative frequency of symptoms over the preceding week. […] The individual imputed missing scores used the specific subscale mean score and were rounded off to the nearest whole number. If an individual subscale score was missing 4 or more items, then that subscale score was set to missing. A total score adding the anxiety and depression subscale scores for HADS was not calculated. Possible scores range from 0 to 21 for each subscale. […]
The HADS assessment was collected and analyzed at visits Screening, Day 1, Week 2, Week 4, Week 6, and Follow-up (Week 7). […] Additionally, the treatment group comparisons were analyzed using the paired t-test and nonparametric Wilcoxon signed-rank test.
The 4 interpreted categorical values for each subscale were summarized in a frequency distribution table. All HADS data collected and the calculated subscale scores at each visit were presented in a subject listing.

[2] = tested on: subjects with fibromyalgia; assay: PROMIS Physical Function short form; format: in vivo, human
From the text: As used herein, the “PROMIS Physical Function short form” is Patient Reported Outcomes Measurement Information System Physical Function Short Form. The PROMIS physical function short form version 1.0 12a measures the self-reported performance of physical activities including dexterity, walking or mobility and the ability to complete activities of daily living. All 12 questions are based on a 5-point numerical rating scale/Likert scale ranging from 1 to 5 with different categorical responses. Higher scores represent a better quality of life. The PROMIS physical function is made of the 2 following subdomains: • Walking Subdomain Score • If the question, “Can you walk 25 feet on a level surface (with or without support)?” is answered yes, then 6 questions will be assessed. Otherwise, the Walking Subdomain Score will not be calculated. 4 Questions with Scores Ranging from 1 (Unable to do) to 5 (Without any difficulty): • Are you able to walk on flat ground? • Are you able to walk up and down two steps? • Are you able to run at a fast pace for 2 miles? • Are you able to do yard work like raking leaves, weeding, or pushing a lawn mower? 2 Questions with Scores Ranging from 1 (Cannot do) to 5 (Not at all): • Does your health now limit you in doing strenuous activities such as backpacking, skiing, playing tennis, bicycling, or jogging? • Does your health now limit you in hiking a couple of miles on uneven surfaces, including hills? • Sum of those 6 Questions make up the Walking Subdomain Score Ranging from 6 to 30 • Other Physical Function Subdomain Score 5 Questions with Scores Ranging from 1 (Unable to do) to 5 (Without any difficulty): • Are you able to wash and dry your body? • Are you able to get in and out of bed? • Are you able to bend down and pick up clothing from the floor? • Are you able to push open a heavy door? • Are you able to reach and get down an object (such as a can of soup) from above your head? 1 Question with Scores Ranging from 1 (Cannot do) to 5 (Not at all): • Does your health now limit you in doing eight hours of physical labor? • Sum of those 6 Questions make up the Other Physical Function Subdomain Score Ranging from 6 to 30
If at least 3 questions have been answered within an individual subdomain, that subdomain score may be imputed if missing responses are present. […] A total score for PROMIS physical function was not calculated. The PROMIS physical function assessment was collected and analyzed at visits Screening, Day 1, Week 2, Week 4, Week 6, and Follow-up (Week 7). […] Additionally, the treatment group comparisons were analyzed using the paired t-test and nonparametric Wilcoxon signed-rank test. All PROMIS physical function data collected and the calculated subdomain scores at each visit were presented in a subject listing.

[3] = Week 2 (placebo) to Week 4 (NYX-2925 20 mg)
[4] = Week 2 (placebo) to Week 6 (NYX-2925 200 mg), not statistically significant

**Q.** CC(C)C(=O)N1CCC[C@]12CN([C@H](C(N)=O)[C@@H](C)O)C2=O [NYX-2925, (2S, 3R)-3-hydroxy-2-((R)-5-isobutyryl-1-oxo-2,5-diazaspiro[3.4]octan-2-yl)butanamide] was tested. Which “HADS Total Anxiety score, mean changes from Week 2 (placebo)” value [1] did it give?
**A.** No statistically significant mean changes

**Q.** What about the “HADS Total Depression score, mean changes from Week 2 (placebo)” value [1] of the same compound?
**A.** No statistically significant mean changes

**Q.** What about the “PROMIS Physical Function Other Physical Function Subdomain score, mean change” value [2, 3] of the same compound?
**A.** −0.1

**Q.** And the “PROMIS Physical Function Walking Subdomain score, mean change” value [2, 3]?
**A.** 0.2

**Q.** And the “PROMIS Physical Function Other Physical Function Subdomain score, mean change” value [2, 4]?
**A.** 0.4

**Q.** And the “PROMIS Physical Function Walking Subdomain score, mean change” value [2, 4]?
**A.** 0.5
